According to PubChem BioAssay (NCI):
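Protocol summary: plate cells (96-well), add compound at 5 concentrations, incubate 48 h, interpolate endpoints linearly. TGI: concentration producing complete growth inhibition.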

Assays:
Test in all cases: growth of human tumour cells (NCI), 48 h
MALME-3M melanoma = tested on: MALME-3M melanoma
SF-539 CNS = tested on: SF-539 CNS
MOLT-4 leukemia = tested on: MOLT-4 leukemia
KM12 colon = tested on: KM12 colon
NCI-H226 lung = tested on: NCI-H226 lung
M14 melanoma = tested on: M14 melanoma
IGROV1 ovarian = tested on: IGROV1 ovarian
SNB-19 CNS = tested on: SNB-19 CNS
RPMI-8226 leukemia = tested on: RPMI-8226 leukemia
T-47D breast = tested on: T-47D breast

SMILES | TGI (MALME-3M melanoma) [µM] | TGI (SF-539 CNS) [µM] | TGI (MOLT-4 leukemia) [µM] | TGI (KM12 colon) [µM] | TGI (NCI-H226 lung) [µM] | TGI (M14 melanoma) [µM] | TGI (IGROV1 ovarian) [µM] | TGI (SNB-19 CNS) [µM] | TGI (RPMI-8226 leukemia) [µM] | TGI (T-47D breast) [µM]
O=C1OCC(O)=C1C(c1ccc(Cl)cc1)c1cc2c(cc1O)OCO2 (stereo not drawn) | > 100 | > 100 | > 100 | > 100 | > 100 | > 100 | > 100 | > 100 |  | 
O=C1CCC(=O)N1n1c(Cc2ccccc2)n[nH]c1=O | > 100 |  | > 100 | 46.4 | > 100 | > 100 | > 100 | > 100 | > 100 | > 100
CC1C=C(CCCCCCCCCCCC[C@@H](O)[C@@H]2CC[C@@H]([C@@H]3CC[C@@H](C(O)CCCCCCCCCCCCC4=C[C@H](C)OC4=O)O3)O2)C(=O)O1 (stereo partly drawn) | > 100 | 52.6 | > 100 | > 100 | > 100 | > 100 | > 100 | > 100 | > 84.5 | 
Cc1ccccc1-n1c(=O)c2ncn(CCCl)c2n(-c2ccccc2C)c1=S |  | > 100 | > 100 | > 100 | > 100 | > 100 | > 100 |  | > 100 | > 100
CCOc1cc2c(cc1O)/C(=N\OC)C[C@@H]1[C@@H]2CC[C@]2(C)[C@@H](O)CC[C@@H]12 | 34.7 |  | 26.5 | 7.63 | 0.654 | 21.8 | > 30.1 | > 100 |  | 
CC(C)CCCCCCCCCCCCC(=O)NCC(=O)NC1C(C)OC(Nc2ncnc3c2ncn3C)C(O)C1O (stereo not drawn) | > 100 | 13.1 | > 100 | > 100 | 15.2 |  | > 100 | > 31 | > 100 | 
CC(=O)Nc1ccc(-c2nnc(SCC(=O)Nc3ccc([N+](=O)[O-])cc3)o2)cc1 | 27 | 39.2 | > 100 | 27.7 | 29.5 | 26.9 | 23.4 |  | > 100 | 
C[n+]1c2ccccc2c(/C=N\NS(=O)(=O)c2ccc(O)c(C(=O)O)c2)c2ccccc21 | > 100 | > 100 | 62 | > 100 | > 100 | > 100 | > 100 | > 100 | > 100 | 
CC1=CC2C(O1)C1C(=O)C=CC(=O)C1=CC2[N+](=O)[O-] (stereo not drawn) |  | 96.5 | > 24.3 | > 55.9 | > 100 | 29.4 | 44.7 | > 72.4 | > 100 | > 29.2
Cc1cc(O)c2c(=O)c3ccccc3[nH]c2c1 | > 100 | 33 | > 100 | > 100 | 94.3 | 52.6 | 94.2 | > 100 | 41 | 
COc1cc2c(cc1OC)C(c1ccccc1CCCCl)=NCC2 |  | > 100 | > 100 | > 100 | > 100 | > 100 | > 100 | > 100 | 42 | > 100
